Laboratory results published in article PMC9822369, “Synthesis, Biological Evaluation, DNA Binding, and Molecular Docking of Hybrid 4,6-Dihydrazone Pyrimidine Derivatives as Antitumor Agents” (Molecules, 2022).

Key:
[1] = biological target: epidermal growth factor receptor kinase; parameters: method as in PMID 30633509; conditions: dual epidermal growth factor receptor kinase and microtubule inhibitor; cited from earlier work
BEL-7402 cells = test: MTT cytotoxicity assay, BEL-7402 cells; type: cell-based; conditions: Homo sapiens, 48 h, read-out: IC50 against BEL-7402
Procedure: (§1) The MTT method is often used to detect the cytotoxicity of compounds in vitro [64]. The cytotoxicity of 10a–10f was evaluated by MTT assay against BGC-823, BEL-7402, MCF-7, and A549 tumor cells. HL-7702 was selected to evaluate the safety of 10a–10f against human normal cells. 5-FU was also evaluated as a positive control. The well-grown cells were inoculated in 96-well plates at a density of 3000 cells/well and incubated in 37 °C for 24 h. The negative control group, blank control group, and administration group were set up. The cells were incubated with a gradient concentration (1.25, 2.5, 5, 10, and 20 μg/mL) of samples or 5-FU for 48 h. Then, 20 μL MTT solution (5 mg/mL) was added to each well. After the cells were incubated for 4 h, 150 μL DMSO was added to each well before testing. The absorbance was measured at 570 nm with a microplate reader. The inhibition rate and final IC50 values were calculated according to the following formula. The values shown are the average of at least three parallel trials. Inhibition rate (%) =1 − (ODsample − ODblank)/(ODnegative − ODblank) × 100%.

MCF-7 cells = test: MTT cytotoxicity assay, MCF-7 cells; type: cell-based; conditions: Homo sapiens, MCF7, 48 h, read-out: IC50 against MCF-7
Procedure: as §1

A549 cells = test: MTT cytotoxicity assay, A549 cells; type: cell-based; conditions: Homo sapiens, 48 h, read-out: IC50 against A549
Procedure: as §1

BGC-823 cells [2] = test: MTT cytotoxicity assay, BGC-823 cells; type: cell-based; conditions: Homo sapiens, 48 h, read-out: IC50 against BGC-823
Procedure: as §1

HL-7702 cells = test: MTT cytotoxicity assay, normal cells HL-7702; type: cell-based; conditions: L02, 48 h, normal human hepatocytes, read-out: IC50 against HL-7702
Procedure: as §1

BGC-823 cells [3] = test: AO/EB double staining; type: cell-based, Human; conditions: BGC-823, 0.5 IC50, IC50, 1.5 IC50, 24 h
Procedure: AO (500 μL, 1 mg/mL) and EB (500 μL, 1 mg/mL) were mixed, and then 4 mL PBS was added to the above solution to form AO/EB dye […]. AO/EB dye (100 μL) was added to each well. After incubating for 3–5 min and washing twice with cold PBS, BGC-823 cells were observed immediately under an inverted fluorescence microscope.

CT-DNA [4] = test: UV/Vis absorbance titration with CT-DNA; type: binding; conditions: hyperchromic effects at 205 nm and 260 nm, no wavelength shift
Procedure: The binding patterns of 10a and 10f with CT-DNA were measured by UV/Vis spectroscopy in Tris-HCl buffer (0.05 M Tris-HCl/0.1 M NaCl, pH 7.4). The stock solution concentrations of both 10a and 10f in DMSO were 10^−3 M. CT-DNA was dissolved in Tris-HCl buffer and stored at 4 °C for use. The stock solution concentration of CT-DNA was determined by UV/Vis absorbance at 260 nm with the extinction coefficient 6600 M^−1·cm^−1 [67]. Tris-HCl buffer was used as a blank to make preliminary adjustments. Absorbance titration experiments were performed at room temperature with the concentrations of 10a and 10f at 0.1 µM, varying the concentrations of CT-DNA (0.2, 0.4, 0.6, 0.8, and 1 µM). The solution was allowed to equilibrate for 2–3 h before measurement. UV/Vis absorption spectra were recorded in the range of 200–400 nm. The binding constant was calculated according to the following equation [54]: […]=[DNA]/(εb−εf)+1/Kb(εb−εf), where εa corresponds to the observed extinction coefficient (A/[DNA]), εf corresponds to the extinction coefficient of the free compound, and εb is the extinction coefficient of the compound when fully bound to CT-DNA. [DNA] is the concentration of CT-DNA added to the compound. The Kb values of 10a and 10f were calculated from the slope to intercept ratio, which was obtained by plotting a graph of [DNA]/(εa − εf) versus [DNA].

CT-DNA [5] = test: Circular dichroism spectra of CT-DNA; type: binding; conditions: CT-DNA 600 μM, compound 100 μM, Tris-HCl pH 7.4
Procedure: The CD spectra of CT-DNA in the absence and presence of 10a or 10f were measured after equilibrating for 1 h in a 1 mm diameter quartz colorimeter at room temperature. The concentration of CT-DNA was fixed at 600 μM in each sample. Both 10a and 10f were added to the above CT-DNA solution at a concentration of 100 μM, respectively. The scanning speed was 200 nm/min. The spectra were scanned on an average of six times in the range of 200–400 nm. All measurements were performed in 0.05 M Tris-HCl buffer (pH 7.4).

BGC-823 cells [6] = test: ROS detection (DCFH-DA) by flow cytometry; type: cell-based, Human; conditions: 24 h
Procedure: According to the instructions of ROS Detection Kit (Solarbio, Beijing, China), in situ probe loading was adopted. ROS intensity changes were determined by inverted fluorescence microscopy and flow cytometry. The whole experiment was carried out under dark conditions.

DNA = tested on: DNA; parameters: method as in PMID 3427013; conditions: classical intercalator; cited from earlier work

| SMILES | IC50 [1] [µM] | IC50 (BEL-7402 cells) [µM] | IC50 (MCF-7 cells) [µM] | IC50 (A549 cells) [µM] | IC50 (BGC-823 cells [2]) [µM] | IC50 (HL-7702 cells) [µM] | apoptosis by AO/EB double staining (morphology) (BGC-823 cells [3]) | interaction mode with DNA (absorption spectra) (CT-DNA [4]) | change of positive (279 nm) and negative (247 nm) CD bands of CT-DNA (CT-DNA [5]) | ROS fluorescence intensity (DCF) (BGC-823 cells [6]; BGC-823, 4 μM) | ROS fluorescence intensity (DCF) (BGC-823 cells [6]; BGC-823, 8 μM) | binding constant with DNA (DNA) |
| --- | --- | --- | --- | --- | --- | --- | --- | --- | --- | --- | --- | --- |
| COc1cc(Nc2ncnc3cc(-c4ccc(C)cc4)sc23)cc(OC)c1OC [Compound 2] | 0.03 |  |  |  |  |  |  |  |  |  |  |  |
| O=c1[nH]cc(F)c(=O)[nH]1 [Compound 5-FU, 5-fluorouracil, reference compound] |  | 15.81 ± 0.01 | 11.3 ± 0.78 | 11.8 ± 0.89 | 15.18 ± 0.05 | 20.83 ± 0.05 |  |  |  |  |  |  |
| Brc1cccc(/C=N/Nc2cc(N/N=C/c3cccc(Br)n3)ncn2)n1 [Compound 10a, 4,6-Bis(2-((E)-(6-bromopyridin-2-yl)methylene)hydrazinyl)pyrimidine] |  | 6.7 ± 0.4 | 22.93 ± 0.16 | 26.96 ± 0.14 | 9 ± 0.6 | > 100 | induce apoptosis of BGC-823 cells in a dose-dependent manner | groove binding and partial intercalation | decreased in intensity |  |  |  |
| C(=N\Nc1cc(N/N=C/c2ccccn2)ncn1)/c1ccccn1 [Compound 10b, 4,6-Bis(2-((E)-pyridin-2-ylmethylene)hydrazinyl)pyrimidine] |  | 15 ± 2 | 39.8 ± 1.18 | 27.3 ± 0.86 | 20.9 ± 0.82 | 38.4 ± 0.58 |  |  |  |  |  |  |
| Cc1cccc(/C=N/Nc2cc(N/N=C/c3cccc(C)n3)ncn2)n1 [Compound 10c, 4,6-Bis(2-((E)-(6-methylpyridin-2-yl)methylene)hydrazinyl)pyrimidine] |  | 29.5 ± 0.61 | 24 ± 0.43 | 37.3 ± 2.3 | 26.21 ± 0.1 | 60.51 ± 0.21 |  |  |  |  |  |  |
| Brc1cccc(/C=N/Nc2cc(N/N=C/c3cccc(Br)n3)nc(-c3ccccc3)n2)n1 [Compound 10d, 4,6-Bis(2-((E)-(6-bromopyridin-2-yl)methylene)hydrazinyl)-2-phenylpyrimidine] |  | 22.5 ± 2.83 | 27.6 ± 0.45 | 47.1 ± 0.8 | 20.8 ± 2.69 | > 100 |  |  |  |  |  |  |
| C(=N\Nc1cc(N/N=C/c2ccccn2)nc(-c2ccccc2)n1)/c1ccccn1 [Compound 10e, 4,6-Bis(2-((E)-pyridin-2-ylmethylene)hydrazinyl)-2-phenylpyrimidine] |  | 20.2 ± 1.43 | 15.7 ± 2 | 30.3 ± 0.65 | 17.7 ± 0.24 | > 100 |  |  |  |  |  |  |
| Cc1cccc(/C=N/Nc2cc(N/N=C/c3cccc(C)n3)nc(-c3ccccc3)n2)n1 [Compound 10f, 4,6-Bis(2-((E)-(6-methylpyridin-2-yl)methylene)hydrazinyl)-2-phenylpyrimidine] |  | 7.66 ± 0.55 | 10.6 ± 0.14 | 37.7 ± 1.37 | 7.89 ± 0.78 | > 100 | induce apoptosis of BGC-823 cells in a dose-dependent manner | groove binding and partial intercalation | decreased in intensity | 27.6 | 32.2 |  |
| CC[n+]1c(-c2ccccc2)c2cc(N)ccc2c2ccc(N)cc21 [EB, Ethidium bromide] |  |  |  |  |  |  |  |  |  |  |  | ~10^7 M^−1 |
